Reference: US11377442B2, “Small molecule agonists and antagonists of NR2F6 activity” (ZANDER THERAPEUTICS, INC., priority 2016, dated 2022)
Like-named read-outs stand apart in the source and are kept apart here.

Legend:
Format in all cases: cell-based
[1] = target: T1, ERα (Homo sapiens, UniProt P03372); assay: Counterscreening, Firefly signal with ERα transient transfection (Firefly_ERa)
T1 construct: expressed in transfected cells
T1 sequence (P03372 1-595): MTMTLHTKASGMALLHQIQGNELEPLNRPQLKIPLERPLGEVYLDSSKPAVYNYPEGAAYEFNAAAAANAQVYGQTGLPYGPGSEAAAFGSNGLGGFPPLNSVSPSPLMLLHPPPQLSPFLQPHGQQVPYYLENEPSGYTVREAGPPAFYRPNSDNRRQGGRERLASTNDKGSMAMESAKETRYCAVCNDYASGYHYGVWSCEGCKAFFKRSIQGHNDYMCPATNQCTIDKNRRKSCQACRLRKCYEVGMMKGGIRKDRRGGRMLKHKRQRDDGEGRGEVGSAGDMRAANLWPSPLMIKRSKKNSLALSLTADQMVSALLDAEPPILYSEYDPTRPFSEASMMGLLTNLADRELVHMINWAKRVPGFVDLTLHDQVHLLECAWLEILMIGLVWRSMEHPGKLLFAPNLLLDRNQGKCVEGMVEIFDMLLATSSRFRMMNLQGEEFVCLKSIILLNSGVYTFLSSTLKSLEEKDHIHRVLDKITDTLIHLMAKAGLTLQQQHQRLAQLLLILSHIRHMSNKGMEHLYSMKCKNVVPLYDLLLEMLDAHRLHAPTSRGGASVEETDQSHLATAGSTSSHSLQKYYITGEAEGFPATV

[2] = system: Renilla; assay: Renilla signal in NR2F6 agonist screening, cmpd/DMSO; conditions: for fold induction at 2 µM / fold induction at 10 µM / fold induction at 40 µM: Renilla, read-out: Renilla F4, cmpd/DMSO (mean)
[3] = system: Renilla_ERa; assay: Renilla signal in ERα counterscreen (Renilla_ERa); conditions: for fold induction at 2 µM / fold induction at 10 µM / fold induction at 40 µM: read-out: Renilla ERalpha transient, cmpd/DMSO (mean)
[4] = target: T1, ERα; assay: Counterscreening, Firefly signal with ERα transient transfection (Firefly_ERa); conditions: 10 uM
Protocol: The methodology for screening candidate compounds as NR2F6 agonists was as follows: For primary screening, hit criteria was ACT %>DMSO control+5*SD (DSO control) at 10 μM, or any compound with S/B>2. For rescreening, hit criteria was ACT %>DMSO control+3*SD (DSO control) in each replicate at 10 μM. For counterscreening, hit criteria was mean ACT<DMSO control+3*SD (DMSO control) with ERα transient transfection in duplicate at 10 μM.

[5] = target: T2, NR2F6 (Homo sapiens, UniProt P10588); assay: NR2F6 agonist screening, Firefly signal cmpd/DMSO
T2 construct: expressed in transfected cells; also transient transfection
T2 sequence (P10588 1-404): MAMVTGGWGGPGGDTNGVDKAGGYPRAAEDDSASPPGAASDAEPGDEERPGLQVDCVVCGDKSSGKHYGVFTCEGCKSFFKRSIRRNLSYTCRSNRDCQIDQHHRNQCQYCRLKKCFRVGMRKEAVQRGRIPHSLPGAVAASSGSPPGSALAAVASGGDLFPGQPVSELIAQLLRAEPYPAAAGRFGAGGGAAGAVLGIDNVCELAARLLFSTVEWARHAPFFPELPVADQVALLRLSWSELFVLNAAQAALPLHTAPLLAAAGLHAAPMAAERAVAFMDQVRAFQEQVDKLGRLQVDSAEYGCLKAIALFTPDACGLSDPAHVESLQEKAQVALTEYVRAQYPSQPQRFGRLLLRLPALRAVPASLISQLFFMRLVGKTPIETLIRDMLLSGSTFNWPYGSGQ

CC1CCN(c2nc(NCCN3CCOCC3)nc(N3CC4CC(C3)c3cccc(=O)n3C4)n2)CC1 (stereo not drawn) [Compound 43]
Firefly ERalpha transient, cmpd/DMSO (mean) ([1]; 2 uM): 1.4 | Firefly ERalpha transient, cmpd/DMSO (mean) ([1]; 40 uM): 1.2 | fold induction at 2 µM ([2]; 2 uM, clone F4): 1 | fold induction at 10 µM ([2]; 10 uM, clone F4): 1.1 | fold induction at 40 µM ([2]; 40 uM, clone F4): 1.1 | fold induction at 2 µM ([3]; 2 uM): 1.1 | fold induction at 10 µM ([3]; 10 uM): 1 | fold induction at 40 µM ([3]; 40 uM): 1 | Firefly ERalpha transient, cmpd/DMSO (mean) [4]: 1.4 | Firefly F4, cmpd/DMSO (mean) ([5]; 2 uM, clone F4): 1.0 | Firefly F4, cmpd/DMSO (mean) ([5]; 10 uM, clone F4): 0.9 | Firefly F4, cmpd/DMSO (mean) ([5]; 40 uM, clone F4): 0.8

O=C(O)c1ccc(-n2ncc(Cl)c(Cl)c2=O)cc1 [Compound 44]
Firefly ERalpha transient, cmpd/DMSO (mean) ([1]; 2 uM): 1.5 | Firefly ERalpha transient, cmpd/DMSO (mean) ([1]; 40 uM): 0.5 | fold induction at 2 µM ([2]; 2 uM, clone F4): 1.1 | fold induction at 10 µM ([2]; 10 uM, clone F4): 1.1 | fold induction at 40 µM ([2]; 40 uM, clone F4): 0.3 | fold induction at 2 µM ([3]; 2 uM): 1.3 | fold induction at 10 µM ([3]; 10 uM): 1.2 | fold induction at 40 µM ([3]; 40 uM): 0.3 | Firefly ERalpha transient, cmpd/DMSO (mean) [4]: 1.3 | Firefly F4, cmpd/DMSO (mean) ([5]; 2 uM, clone F4): 1.3 | Firefly F4, cmpd/DMSO (mean) ([5]; 10 uM, clone F4): 1.5 | Firefly F4, cmpd/DMSO (mean) ([5]; 40 uM, clone F4): 0.7

O=c1c(Cl)c(Cl)cnn1-c1ccccc1 [Compound 45]
Firefly ERalpha transient, cmpd/DMSO (mean) ([1]; 2 uM): 1.8 | Firefly ERalpha transient, cmpd/DMSO (mean) ([1]; 40 uM): 0.6 | fold induction at 2 µM ([2]; 2 uM, clone F4): 1.6 | fold induction at 10 µM ([2]; 10 uM, clone F4): 0.8 | fold induction at 40 µM ([2]; 40 uM, clone F4): 0.2 | fold induction at 2 µM ([3]; 2 uM): 1.6 | fold induction at 10 µM ([3]; 10 uM): 0.8 | fold induction at 40 µM ([3]; 40 uM): 0.2 | Firefly ERalpha transient, cmpd/DMSO (mean) [4]: 1.6 | Firefly F4, cmpd/DMSO (mean) ([5]; 2 uM, clone F4): 3.2 | Firefly F4, cmpd/DMSO (mean) ([5]; 10 uM, clone F4): 1.2 | Firefly F4, cmpd/DMSO (mean) ([5]; 40 uM, clone F4): 0.7

Cc1ccc(NC(=O)c2noc3c2CC(C)(C)CC3)cc1C [Compound Z1]
Firefly ERalpha transient, cmpd/DMSO (mean) ([1]; Table 15, 2 uM): 2.4 | Firefly ERalpha transient, cmpd/DMSO (mean) ([1]; Table 15, 40 uM): 0.9 | fold induction at 2 µM ([2]; Table 15, 2 uM): 1.3 | fold induction at 10 µM ([2]; Table 15, 10 uM): 1.6 | fold induction at 40 µM ([2]; Table 15, 40 uM): 0.8 | fold induction at 2 µM ([3]; Table 15, 2 uM): 1.1 | fold induction at 10 µM ([3]; Table 15, 10 uM): 1 | fold induction at 40 µM ([3]; Table 15, 40 uM): 0.7 | Firefly ERalpha transient, cmpd/DMSO (mean) ([4]; Table 15): 2.2 | Firefly F4, cmpd/DMSO (mean) ([5]; Table 15, 2 uM): 1.9 | Firefly F4, cmpd/DMSO (mean) ([5]; Table 15, 10 uM): 1.8 | Firefly F4, cmpd/DMSO (mean) ([5]; Table 15, 40 uM): 0.8

Cc1ccc(NC(=O)c2n[nH]c3c2CCCCC3)cc1C [Compound Z2]
Firefly ERalpha transient, cmpd/DMSO (mean) ([1]; Table 15, 2 uM): 1.6 | Firefly ERalpha transient, cmpd/DMSO (mean) ([1]; Table 15, 40 uM): 0.7 | fold induction at 2 µM ([2]; Table 15, 2 uM): 1.2 | fold induction at 10 µM ([2]; Table 15, 10 uM): 1.8 | fold induction at 40 µM ([2]; Table 15, 40 uM): 1.2 | fold induction at 2 µM ([3]; Table 15, 2 uM): 1.2 | fold induction at 10 µM ([3]; Table 15, 10 uM): 1.1 | fold induction at 40 µM ([3]; Table 15, 40 uM): 1 | Firefly ERalpha transient, cmpd/DMSO (mean) ([4]; Table 15): 1.1 | Firefly F4, cmpd/DMSO (mean) ([5]; Table 15, 2 uM): 1.4 | Firefly F4, cmpd/DMSO (mean) ([5]; Table 15, 10 uM): 1.9 | Firefly F4, cmpd/DMSO (mean) ([5]; Table 15, 40 uM): 0.6

COc1cccc(-c2noc(Cn3nccc(Cl)c3=O)n2)c1 [Compound Z3]
Firefly ERalpha transient, cmpd/DMSO (mean) ([1]; Table 15, 2 uM): 2.2 | Firefly ERalpha transient, cmpd/DMSO (mean) ([1]; Table 15, 40 uM): 1.7 | fold induction at 2 µM ([2]; Table 15, 2 uM): 1.5 | fold induction at 10 µM ([2]; Table 15, 10 uM): 1.4 | fold induction at 40 µM ([2]; Table 15, 40 uM): 0.9 | fold induction at 2 µM ([3]; Table 15, 2 uM): 1.1 | fold induction at 10 µM ([3]; Table 15, 10 uM): 1 | fold induction at 40 µM ([3]; Table 15, 40 uM): 0.9 | Firefly ERalpha transient, cmpd/DMSO (mean) ([4]; Table 15): 2.6 | Firefly F4, cmpd/DMSO (mean) ([5]; Table 15, 2 uM): 1.5 | Firefly F4, cmpd/DMSO (mean) ([5]; Table 15, 10 uM): 1.1 | Firefly F4, cmpd/DMSO (mean) ([5]; Table 15, 40 uM): 1.6

COc1cccc(-c2noc(Cn3ncc(Cl)cc3=O)n2)c1 [Compound Z4]
Firefly ERalpha transient, cmpd/DMSO (mean) ([1]; Table 15, 2 uM): 1.5 | Firefly ERalpha transient, cmpd/DMSO (mean) ([1]; Table 15, 40 uM): 0.8 | fold induction at 2 µM ([2]; Table 15, 2 uM): 1.1 | fold induction at 10 µM ([2]; Table 15, 10 uM): 1.6 | fold induction at 40 µM ([2]; Table 15, 40 uM): 1.4 | fold induction at 2 µM ([3]; Table 15, 2 uM): 1.2 | fold induction at 10 µM ([3]; Table 15, 10 uM): 1.1 | fold induction at 40 µM ([3]; Table 15, 40 uM): 0.8 | Firefly ERalpha transient, cmpd/DMSO (mean) ([4]; Table 15): 1.4 | Firefly F4, cmpd/DMSO (mean) ([5]; Table 15, 2 uM): 1.5 | Firefly F4, cmpd/DMSO (mean) ([5]; Table 15, 10 uM): 1.2 | Firefly F4, cmpd/DMSO (mean) ([5]; Table 15, 40 uM): 0.8

COc1cccc(-c2noc(Cn3ncccc3=O)n2)c1 [Compound Z5]
Firefly ERalpha transient, cmpd/DMSO (mean) ([1]; Table 15, 2 uM): 2.4 | Firefly ERalpha transient, cmpd/DMSO (mean) ([1]; Table 15, 40 uM): 2.4 | fold induction at 2 µM ([2]; Table 15, 2 uM): 1 | fold induction at 10 µM ([2]; Table 15, 10 uM): 0.9 | fold induction at 40 µM ([2]; Table 15, 40 uM): 1.2 | fold induction at 2 µM ([3]; Table 15, 2 uM): 1 | fold induction at 10 µM ([3]; Table 15, 10 uM): 1 | fold induction at 40 µM ([3]; Table 15, 40 uM): 1 | Firefly ERalpha transient, cmpd/DMSO (mean) ([4]; Table 15): 2.5 | Firefly F4, cmpd/DMSO (mean) ([5]; Table 15, 2 uM): 1.5 | Firefly F4, cmpd/DMSO (mean) ([5]; Table 15, 10 uM): 0.9 | Firefly F4, cmpd/DMSO (mean) ([5]; Table 15, 40 uM): 1.2

COc1cccc(-c2noc(Cn3ncc4ccccc4c3=O)n2)c1 [Compound Z6]
Firefly ERalpha transient, cmpd/DMSO (mean) ([1]; Table 15, 2 uM): 2.0 | Firefly ERalpha transient, cmpd/DMSO (mean) ([1]; Table 15, 40 uM): 1.1 | Renilla F4, cmpd/DMSO (mean) ([2]; Table 15, 2 uM): 1.1 | Renilla F4, cmpd/DMSO (mean) ([2]; Table 15, 10 uM): 1.1 | Renilla F4, cmpd/DMSO (mean) ([2]; Table 15, 40 uM): 0.9 | Renilla ERalpha transient, cmpd/DMSO (mean) ([3]; Table 15, 2 uM): 1.1 | Renilla ERalpha transient, cmpd/DMSO (mean) ([3]; Table 15, 10 uM): 1.1 | Renilla ERalpha transient, cmpd/DMSO (mean) ([3]; Table 15, 40 uM): 0.9 | Firefly ERalpha transient, cmpd/DMSO (mean) ([4]; Table 15): 2.2 | Firefly F4, cmpd/DMSO (mean) ([5]; Table 15, 2 uM): 1.4 | Firefly F4, cmpd/DMSO (mean) ([5]; Table 15, 10 uM): 1.4 | Firefly F4, cmpd/DMSO (mean) ([5]; Table 15, 40 uM): 1.1

COc1ccc(-c2noc(Cn3ncc4ccccc4c3=O)n2)cc1 [Compound Z7]
Firefly ERalpha transient, cmpd/DMSO (mean) ([1]; Table 15, 2 uM): 1.3 | Firefly ERalpha transient, cmpd/DMSO (mean) ([1]; Table 15, 40 uM): 1.5 | fold induction at 2 µM ([2]; Table 15, 2 uM): 1.3 | fold induction at 10 µM ([2]; Table 15, 10 uM): 1.1 | fold induction at 40 µM ([2]; Table 15, 40 uM): 1.1 | fold induction at 2 µM ([3]; Table 15, 2 uM): 1.1 | fold induction at 10 µM ([3]; Table 15, 10 uM): 1.1 | fold induction at 40 µM ([3]; Table 15, 40 uM): 1 | Firefly ERalpha transient, cmpd/DMSO (mean) ([4]; Table 15): 2.0 | Firefly F4, cmpd/DMSO (mean) ([5]; Table 15, 2 uM): 0.9 | Firefly F4, cmpd/DMSO (mean) ([5]; Table 15, 10 uM): 1.2 | Firefly F4, cmpd/DMSO (mean) ([5]; Table 15, 40 uM): 1.0
